From patent US20240279149A1 (ZHEJIANG OCEAN UNIVERSITY, priority 2021, published 2024)

What was measured:
[1] = system: total number of colonies of the Chinese tube whip shrimps; assay: Total sterilization effect experiment: total number of colonies (aerobic plate count) of photodynamically treated shrimp in 4° C. storage; type: cell-based; details: 20 μmol/L
Protocol: The total sterilization effect experiment and sensory evaluation of the Chinese tube whip shrimps obtained from Application Example 1, Comparative Application Example 1, and Comparative Application Example 2 were carried out. The specific steps are as follows: • (1) the Chinese tube whip shrimps obtained from Application Example 1, Comparative Application Example 1, and Comparative Application Example 2 were put into a fresh-keeping bag of a fresh-keeping box, and stored in a refrigerator at 4° C.; • (2) when stored for 2, 4, 6, 8, and 10 days, according to the method specified in the national standard GB/T 4789.2-2016 Food Microbiological Examination—Aerobic Plate Count, the total number of colonies of the Chinese tube whip shrimps treated in step (1) was measured; and • (3) when stored for 2, 4, 6, 8, and 10 days, a sensory evaluation team conducted sensory scores on the stored shrimps; the sensory score team was composed of 10 strictly trained personnel to evaluate the appearance, odor, and posture of the processed Chinese tube whip shrimps, and the average value was taken. The scoring criteria are shown in Table 1, and the sensory score result is the sum of the 3 indicator scores with a total score of 18 indicating absolute freshness and 9 indicating significant quality deterioration.
From this, it can be seen that the shelf life of refrigerated Chinese tube whip shrimp in Comparative Application Example 1 and Comparative Application Example 2 is only 4 days.

[2] = Singlet oxygen generation ability, ABDA absorbance decay method; type: physicochemical; details: 5 μmol/L compound, 50 μmol/L ABDA, aqueous solution, blue LED 470 nm, 20 mW/cm^2, 180 s; FIG. 4

COc1cc(/C=C/C=C/C(O)=C/C(=O)/C=C/c2ccc(Br)c(OC)c2)ccc1Br [Embodiment 1]
bacterial growth (total number of colonies) ([1]; soaking 10 min, blue LED 10 W, 470 nm, 120 s, stored at 4° C. for 2-10 days, vs Comparative Application Examples 1 and 2, p<0.05, FIG. 6): significantly inhibited
freshness level by total number of colonies ([1]; after 10 days of refrigeration at 4° C., blue LED 10 W, 470 nm, 120 s): approached second-level freshness
freshness level by total number of colonies ([1]; on the 4th day of refrigeration at 4° C., blue LED 10 W, 470 nm, 120 s): first-level freshness (the shrimp with a total number of colonies of ≤10^5 CFU/g is considered as first-level freshness)
shelf life of fresh shrimp (in words) ([1]; photodynamic treatment of Chinese tube whip shrimp, stored at 4° C.): significantly prolonged
singlet oxygen generation ability [2]: higher than that of the single bromine substituted curcumin derivative obtained in Embodiment 2

COc1cc(/C=C/C(=O)CC(=O)/C=C/c2ccc(O)c(OC)c2)ccc1O [natural curcumin, curcumin, reference compound]
shelf life of refrigerated Chinese tube whip shrimp ([1]; soaking 10 min, blue LED 10 W, 470 nm, 120 s, stored at 4° C., end of shelf life by total number of colonies): 4 days
